Experimental findings from PubChem BioAssay (NCI) are described below.

Among the test systems are A498 renal; NCI-H23 lung; UACC-62 melanoma; MOLT-4 leukemia; A549 NSCLC; M14 melanoma; UACC-257 melanoma; 786-0 renal; IGROV1 ovarian; SK-OV-3 ovarian.
Assay in all cases: DTP human tumour cell line panel, 48 h

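Five compound concentrations were applied to cells in 96-well plates for 48 hours; endpoints were derived by simple linear interpolation of the resulting dose-response curve. GI50 is the concentration that inhibits growth by half. At the TGI there is no net growth.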

As for `CCOC(=O)c1cc2cc([N+](=O)[O-])ccc2oc1=O`, the total growth inhibition concentration (TGI) with A498 renal, in the experiment on NCI-H23 lung, with UACC-62 melanoma, in the experiment on MOLT-4 leukemia, with A549 NSCLC and with M14 melanoma was more than 100 µM throughout. Moreover, the TGI in the experiment with UACC-257 melanoma, with 786-0 renal and in the experiment on IGROV1 ovarian was more than 100 µM throughout.

Consider `COS(=O)CCOC(=O)c1ccccc1SSc1ccccc1C(=O)OCCS(=O)OC` (stereo unspecified), for which the TGI (commonly the concentration at which net growth stops) in the experiment with A498 renal is more than 100 µM; in the experiment on NCI-H23 lung it was 44.4 µM; in the experiment on UACC-62 melanoma, 51.5 µM; in the experiment on MOLT-4 leukemia, 22.8 µM; in the experiment with A549 NSCLC, more than 100 µM; in the experiment with M14 melanoma, 57.8 µM. For the same molecule, the TGI is 38.8 µM in the experiment on UACC-257 melanoma, more than 100 µM in the experiment on SK-OV-3 ovarian, 38.2 µM in the experiment with 786-0 renal and more than 100 µM with IGROV1 ovarian.

For `COc1cc(SC)ccc1C(=O)N1CCCC(C)C1` (stereo unspecified), the GI50 (commonly the concentration that inhibits growth by half) with A498 renal is 34.4 µM; with NCI-H23 lung, 70 µM; in the experiment on UACC-62 melanoma it was more than 100 µM; with MOLT-4 leukemia it was 77.7 µM; in the experiment with A549 NSCLC, more than 100 µM; in the experiment on M14 melanoma it was more than 100 µM. The GI50 in the experiment on UACC-257 melanoma was 78.9 µM; with SK-OV-3 ovarian it was more than 100 µM; in the experiment with 786-0 renal, more than 100 µM; in the experiment on IGROV1 ovarian, more than 100 µM. Also, the total growth inhibition concentration (TGI) in the experiment on A498 renal, with NCI-H23 lung, in the experiment with UACC-62 melanoma, in the experiment on MOLT-4 leukemia, in the experiment on A549 NSCLC and in the experiment with M14 melanoma was more than 100 µM throughout. In addition, the TGI with UACC-257 melanoma, in the experiment with SK-OV-3 ovarian, in the experiment on 786-0 renal and with IGROV1 ovarian was more than 100 µM throughout.

Regarding `C=C1C(=O)C23C(CC(OC(C)=O)C1[C@@H]2OC(C)=O)C1(C)C(OC(C)=O)CCC(C)(C)C1C[C@@H]3OC(C)=O` (stereo partly specified), the TGI with A498 renal came out at 3.4 µM; with UACC-62 melanoma it was 3.72 µM; in the experiment on A549 NSCLC, 3.05 µM; in the experiment on M14 melanoma, 2.92 µM; in the experiment with UACC-257 melanoma, 3.14 µM; in the experiment on SK-OV-3 ovarian, 3.59 µM. Besides, the total growth inhibition concentration (TGI) in the experiment with 786-0 renal is 2.73 µM; in the experiment on IGROV1 ovarian, 2.87 µM.

For `N#CC(/C(=N\NC(N)=S)C(=O)NC1C2CC3CC(C2)CC1C3)c1ccc(Cl)cc1` (stereo unspecified), the total growth inhibition concentration (TGI) in the experiment with A498 renal, in the experiment with NCI-H23 lung, in the experiment on UACC-62 melanoma, with MOLT-4 leukemia, in the experiment on A549 NSCLC and in the experiment with M14 melanoma was more than 100 µM throughout. The TGI with UACC-257 melanoma, in the experiment on SK-OV-3 ovarian, with 786-0 renal and in the experiment on IGROV1 ovarian was more than 100 µM each time.

Turning to `O=[N+]([O-])C(=C(c1ccccc1)c1ccccc1)[N+](=O)[O-]`, the TGI in the experiment with A498 renal was determined as 28.6 µM; in the experiment with NCI-H23 lung, 52.8 µM; in the experiment on UACC-62 melanoma it was 9.56 µM; in the experiment with MOLT-4 leukemia it was 22.7 µM; in the experiment with A549 NSCLC, 51.3 µM; in the experiment with M14 melanoma it was 25.4 µM. The TGI in the experiment on UACC-257 melanoma was 25.8 µM; with 786-0 renal it was 27.7 µM; in the experiment on IGROV1 ovarian, 23.2 µM.

`C/C(=N\NC(=S)Nc1ccc([N+](=O)[O-])cc1S(=O)(=O)O)c1ccccn1`: the TGI with A498 renal was 88.8 µM; in the experiment on NCI-H23 lung, more than 100 µM; in the experiment on UACC-62 melanoma it was more than 100 µM; with MOLT-4 leukemia, more than 100 µM; in the experiment with A549 NSCLC it was more than 100 µM; in the experiment on M14 melanoma, more than 100 µM. In addition, the total growth inhibition concentration (TGI) in the experiment with UACC-257 melanoma, in the experiment with 786-0 renal and in the experiment on IGROV1 ovarian was more than 100 µM in each case.

Take `c1ccc(CN(Cc2ccccn2)Cn2cccn2)nc1`: the total growth inhibition concentration (TGI) is more than 100 µM in the experiment on A498 renal; more than 100 µM in the experiment on NCI-H23 lung; 44.4 µM in the experiment with UACC-62 melanoma; more than 100 µM with MOLT-4 leukemia; more than 100 µM with A549 NSCLC; more than 100 µM in the experiment on M14 melanoma. For the same molecule, the TGI in the experiment on UACC-257 melanoma, in the experiment on SK-OV-3 ovarian and in the experiment on 786-0 renal was more than 100 µM each time.

`CC(=O)Nc1[nH]c(=O)[nH]c(=O)c1N(C(C)=O)C(C)=O`: the TGI with A498 renal, in the experiment on UACC-62 melanoma, with MOLT-4 leukemia, with A549 NSCLC, with M14 melanoma and in the experiment on UACC-257 melanoma was more than 100 µM throughout. The TGI in the experiment with 786-0 renal and in the experiment with IGROV1 ovarian was more than 100 µM each time.

Turning to `COCCn1cc(-c2csc(-c3c[nH]c4ccc(F)cc34)n2)c2cccnc21`, the GI50 with A498 renal was 3.26 µM; in the experiment with NCI-H23 lung it was 3.88 µM; with UACC-62 melanoma it was 6.78 µM; with MOLT-4 leukemia it was 5.56 µM; with A549 NSCLC it was 4.51 µM; in the experiment on M14 melanoma, 3.14 µM. Moreover, the figures for the GI50 with 786-0 renal and in the experiment with IGROV1 ovarian were 5.12 µM and 3.49 µM, respectively. The total growth inhibition concentration (TGI) is 9.4 µM with A498 renal; more than 100 µM in the experiment with NCI-H23 lung; more than 100 µM in the experiment with UACC-62 melanoma; more than 100 µM in the experiment with MOLT-4 leukemia; more than 100 µM in the experiment on A549 NSCLC; more than 100 µM with M14 melanoma. In addition, the TGI in the experiment with 786-0 renal and in the experiment on IGROV1 ovarian was more than 100 µM throughout.

Consider `NC(=O)c1ccc(NC(=O)c2oc3ccccc3c2-c2cnn(-c3ccccc3)c2)cc1`, for which the GI50 in the experiment with A498 renal was 60.8 µM; with NCI-H23 lung it was 6 µM; in the experiment with MOLT-4 leukemia, more than 100 µM; in the experiment with M14 melanoma it was more than 100 µM; in the experiment on UACC-257 melanoma, more than 100 µM; in the experiment with SK-OV-3 ovarian it was more than 100 µM. In the experiment with 786-0 renal, the GI50 was 5.41 µM. Besides, the TGI with A498 renal, with NCI-H23 lung, with MOLT-4 leukemia, in the experiment with M14 melanoma, with UACC-257 melanoma and with SK-OV-3 ovarian was more than 100 µM throughout. The TGI in the experiment with 786-0 renal was more than 85.2 µM.

On to `Cc1ccc(C)c(NC(=O)CCc2n[nH]c(=S)o2)c1`, for which the total growth inhibition concentration (TGI) in the experiment on A498 renal, with NCI-H23 lung, with UACC-62 melanoma, in the experiment with MOLT-4 leukemia, in the experiment on A549 NSCLC and in the experiment with M14 melanoma was more than 100 µM in each case. Besides, the TGI in the experiment on UACC-257 melanoma, in the experiment on 786-0 renal and in the experiment on IGROV1 ovarian was more than 100 µM each time.
